The test system of the experiment is M. tuberculosis, drug resistant strain Vertulla. In kind it is cell-based, Mycobacterium tuberculosis (in human macrophages). Particulars: for CFU: duplicate values.

Molecules are shown by their SMILES. Several values for one entry are separate records, joined by “and”; a condition that tells them apart may be missing. Identical values can stand only once. Entries after “also recorded” stand apart in the source; their conditions may differ. Like-named read-outs stand apart in the source and are kept apart here.

Turning to `NCC[C@H](O)C(=O)N[C@@H]1C[C@H](N)[C@@H](O[C@H]2O[C@H](CN)[C@@H](O)[C@H](O)[C@H]2O)[C@H](O)[C@H]1O[C@H]1O[C@H](CO)[C@@H](O)[C@H](N)[C@H]1O` [amikacin], the CFU is 9.3 1 × 10^3 cfu per monolayer and 8.0 1 × 10^3 cfu per monolayer (4 μg/ml, day 4); 5 1 × 10^3 cfu per monolayer and 4 1 × 10^3 cfu per monolayer (8 μg/ml, day 4); 4.5 1 × 10^3 cfu per monolayer and 6.2 1 × 10^3 cfu per monolayer (8 μg/ml, day 7); 5 1 × 10^3 cfu per monolayer and 5.4 1 × 10^3 cfu per monolayer (16 μg/ml, day 4); 3.7 1 × 10^3 cfu per monolayer and 4.1 1 × 10^3 cfu per monolayer (16 μg/ml, day 7). Further, the “inhibition / killing of drug resistant bacteria (in words)” value (4, 8 and 16 μg/ml, killing = fewer cfu than previous time point, listed as free amikacin) is “at the most, inhibition; also recorded: only inhibit the growth of the infection without killing”.
